How the values were obtained:
[1] = test system: DNBS-induced distal colitis in Wistar derived rats; experiment: Dinitrobenzene sulfonic acid-induced inflammatory bowel syndrome model rats; type: in vivo, rat; conditions: oral, 24 and 2 hours before DNBS instillation and then daily for 5 days
Method: Treatment of Crohn's disease in dinitrobenzene sulfonic acid-induced inflammatory bowel syndrome model rats: Wistar derived male or female rats weighing 200±20 g and fasted for 24 hours were used. Distal colitis was induced by intra-colonic instillation of 2,4-dinitrobenzene sulfonic acid (DNBS, 25 mg in 0.5 mL ethanol 30%) after which air (2 mL) was gently injected through the cannula to ensure that the solution remained in the colon. A test compound and/or vehicle was administered orally 24 and 2 hours before DNBS instillation and then daily for 5 days. One control group was similarly treated with vehicle alone while the other is treated with vehicle plus DNBS. The animals were sacrificed 24 hours after the final dose of test compound administration and each colon was removed and weighed. Colon-to-body weight ratio was then calculated for each animal according to the formula: Colon (g)/BW×100. The “Net” increase in ratio of Vehicle-control+DNBS group relative to Vehicle-control group was used as a base for comparison with test substance treated groups and expressed as “% Deduction.” Pyrimidine compounds of this invention (e.g., Compound 12) reproducibly had about 30% deduction. A 30% or more reduction in colon-to-body weight ratio, relative to the vehicle treated control group, was considered significant.
These experiments were repeated three times and the effects were reproducible.

[2] = test system: colitis in T cell-reconstituted C.B-17 SCID mice; experiment: CD4+ CD45Rb high T cell-reconstituted SCID colitis model mice; type: in vivo, mouse
Method: Treatment of Crohn's disease in CD4^+ CD45Rb^high T cell-reconstituted SCID colitis model mice: Spleen cells were prepared from normal female BALB/c mice. For cell purification, the following anti-mouse antibodies were used to label non-CD4^+ T cells: B220 (RA3-6B2), CD11b (M1/70), and CD8α (53-6.72). All antibodies were obtained from BioSource (Camarillo, Calif.). M450 anti-rat IgG-coated magnetic beads (Dynal, Oslo, Norway) were used to bind the antibodies and negative selection was accomplished using an MPC-1 magnetic concentrator. The enriched CD4^+ cells were then labeled for cell sorting with FITC-conjugated CD45RB (16A, Pharmingen, San Diego, Calif.) and PE-conjugated CD4 (CT-CD4, Caltag, Burlingame, Calif.). CD4^+ CD45RB^high cells were operationally defined as the upper 40% of CD45Rb-staining CD4^+ cells and sorted under sterile conditions by flow cytometry. Harvested cells were resuspended at 4×10^6/mL in PBS and injected 100 μL intraperitoneally into female C.B-17 SCID mice. Pyrimidine compounds of this invention (e.g., Compound 12) and/or vehicle was orally administered once a day, 5 days per week, starting the day following the transfer. The transplanted SCID mice were weighed weekly and their clinical condition was monitored.
Colon tissue samples were fixed in 10% buffered formalin and embedded in paraffin. Sections (4 μm) collected from ascending, transverse, and descending colon were cut and stained with hematoxylin and eosin. The severity of colitis was determined based on histological examination of the distal colon sections, whereby the extent of colonic inflammation was graded on a scale of 0-3 in each of four criteria: crypt elongation, cell infiltration, depletion of goblet cells, and the number of crypt abscesses.
LP lymphocytes were isolated from freshly obtained colonic specimens. After removal of payer's patches, the colon was washed in Ca/Mg-free HBSS, cut into 0.5 cm pieces and incubated twice in HBSS containing EDTA (0.75 mM), DTT (1 mM), and antibiotics (amphotericin 2.5 μg/mL, gentamicin 50 μg/mL from Sigma) at 37° C. for 15 min. Next, the tissue was digested further in RPMI containing 0.5 mg/mL collagenase D, 0.01 mg/mL DNase I (Boehringer Manheim), and antibiotics at 37° C. […]
To measure cytokine production, 48-well plates were coated with 10 μg/mL murine anti-CD3ε antibody (145-2C11) in carbonate buffer (PH 9.6) overnight at 4° C. […] Murine IFNγ was measured using an ELISA kit from Endogen (Cambridge, Mass.), according to the manufacturer's instructions.
The calculated colon-to-body weight ratio was consistent with the histological score, showing attenuation by treatment with the test compound.

[3] = test system: adjuvant arthritis (AA) in female Lewis rats; experiment: Treatment of adjuvant arthritis in rats; type: in vivo, rat; conditions: oral administration once a day for 12 days; experiments repeated four times
Method: Treatment of adjuvant arthritis in rats: Adjuvant arthritis (AA) was induced in female Lewis rats by the intracutaneous injection (base of the tail) of 0.1 mL of a 10 mg/mL bacterial suspension made from ground, heat-killed Mycobacterium tuberculosis H37Ra suspended in incomplete Freund's adjuvant. Rats were given a test compound orally once a day for 12 days, starting the day following the induction. The development of polyarthritis was monitored daily by macroscopic inspection and assignment of an arthritis index to each animal, during the critical period (days 10 to 25 post-immunization).
The intensity of polyarthritis was scored according to the following scheme: (a) Grade each paw from 0 to 3 based on erythema, swelling, and deformity of the joints: 0 for no erythema or swelling; 0.5 if swelling is detectable in at least one joint; 1 for mild swelling and erythema; 2 for swelling and erythema of both tarsus and carpus; and 3 for ankylosis and bony deformity. Maximum score for all 4 paws was thus 12. […]
Experiments with the AA model were repeated four times. […] The arthritis score used in this model was a reflection of the inflammatory state of the structures monitored and the results therefore show the ability of the test compound to provide relief for this aspect of the pathology.

IL-23 = experiment: Inhibition of IL-23 in stimulated human PBMC (p19 capture ELISA); type: cell-based
Text: The level of inhibition of IL-23 inhibition by a compound of the invention can be measured by a similar assay in which human peripheral blood mononuclear cells (PBMC) or human monocytic cell line (THP-1) are stimulated with a combination of human interferon-γ (IFNγ) and lipopolysaccharide (LPS) or a combination of IFNγ and Staphylococcus aureus Cowan I (SAC) in the presence of a test compound. The level of inhibition of IL-23 production can be measured by determining the amount of p19 by using a sandwich ELISA assay with antibodies the recognize p19 subunit of IL-23. IC50 of the test compound can then be determined. One such assay is disclosed herein in Example 30.
Therefore, inhibition of IL-23 in addition to IL-12 is expected. In order to confirm the hypothesis, an assay was established to specifically detect IL-23 using polyclonal antibodies recognizing p19 (R&D Systems, MN), an IL-23 specific subunit. A 96-well plate was coated with the antibodies at 1 μg/ml, and after washing incubated with the supernatants of human peripheral blood mononuclear cells (PBMC). The culture was stimulated with 1 μg/ml of liposaccharide (LPS) (FIG. 2) or 0.025% of S. aureus Cowan I (SAC) (FIG. 1) in the presence of test compound after IFN-γ priming. The captured IL-23 was then detected by a biotinylated goat anti-human p40 antibody that binds to p40 subunit of human IL-12 and IL-23 as a monomer or in the context of the respective heterodimer (Part 840099 of product DY1240 from R&D Systems). The plate was developed by incubation with streptavidin-HRP and then substrate solution (R&D Systems Cat # DY999). Recombinant IL-23 (R&D Systems) was added as standard in the assay. The estimated detection range is from 0.1 to 10 ng/ml, and 1 ng/ml recombinant IL-12 heterodimer (Cell Sciences, MA) and p40 monomer (R&D Systems) were under detection limit. To compare with the inhibition of IL-23, the supernatant was also analyzed for IL-12 heterodimer and total p40 proteins using IL-12 specific ELISA kit (Cell Sciences) and p40 ELISA kit (R&D Systems) respectively.

Cc1cccc(C=NNc2cc(N3CCOCC3)nc(OCCc3ccccn3)n2)c1 [Compound 12, N-(3-methyl-benzylidene)-N′-[6-morpholin-4-yl-2-(2-pyridin-2-yl-ethoxy)-pyrimidin-4-yl]-hydrazine]
% Deduction (net increase in colon-to-body weight ratio) [1]: about 30%
IFNγ production by LP cells ([2]; LP cells ex vivo in response to anti-CD3 antibody and anti-CD28 antibody, 48 h): greatly diminished the production
colon-to-body weight ratio ([2]; oral administration): attenuation
colonic inflammation (histological analysis) ([2]; oral administration once a day, 5 days per week, compared to vehicle control): reduced colonic inflammation
suppressive effect on colonic inflammation at 10 mg/kg ([2]; oral, dose of 10 mg/kg): substantial reduction
arthritic score [3]: reproducibly reduced the arthritic score
development of polyarthritis [3]: delayed the development of polyarthritis in a dose-dependent manner
inhibition of IL-23 (IL-23; IFN-γ/SAC and IFN-γ/LPS-stimulated human PBMC): inhibited by compound 12 in a dose-dependent manner
inhibitory activity against IL-23 compared with that against IL-12 (IL-23; stimulated human PBMC): slightly lower than that against IL-12
inhibitory activity against IL-23 compared with that against p40 (IL-23; stimulated human PBMC): comparable to that against p40
